Results taken from patent US10183915B2, “Axially chiral isomers, and preparation methods therefor and pharmaceutical uses thereof” (MEDSHINE DISCOVERY INC., priority 2015, dated 2019).

What was measured:
human URAT1 = molecular target: T1, human URAT1 (Homo sapiens, UniProt Q96S37); experiment: Inhibition of URAT1-mediated uptake of 14C-labeled uric acid in stably transfected HEK293 cells; type: cell-based; conditions: multiple parallel tests
T1 construct: host or cells: HEK293
T1 sequence (Q96S37 1-553): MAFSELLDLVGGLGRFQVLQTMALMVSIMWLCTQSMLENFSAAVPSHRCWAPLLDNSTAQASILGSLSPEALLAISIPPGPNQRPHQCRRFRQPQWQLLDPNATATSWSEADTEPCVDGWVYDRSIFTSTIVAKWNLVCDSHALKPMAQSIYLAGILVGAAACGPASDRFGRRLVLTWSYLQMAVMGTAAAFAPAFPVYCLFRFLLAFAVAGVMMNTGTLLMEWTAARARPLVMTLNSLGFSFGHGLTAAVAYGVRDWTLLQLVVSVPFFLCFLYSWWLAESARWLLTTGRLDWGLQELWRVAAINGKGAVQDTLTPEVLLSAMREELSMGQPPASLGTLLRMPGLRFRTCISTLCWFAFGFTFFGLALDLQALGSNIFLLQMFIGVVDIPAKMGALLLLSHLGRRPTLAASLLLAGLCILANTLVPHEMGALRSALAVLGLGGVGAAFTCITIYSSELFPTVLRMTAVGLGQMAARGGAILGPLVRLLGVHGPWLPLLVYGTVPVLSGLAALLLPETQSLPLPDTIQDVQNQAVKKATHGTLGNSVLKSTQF
Method: A HEK293 cell line stably transfected with URAT-1 (uric acid transporter) gene was used to determine the IC50 value of the compound to inhibit the reabsorption of uric acid.
URAT-1 (HEK293) cell lines: HEK293 cell line with human URAT1 stable transfected (the cell line was constructed by WuXi AppTec in Shanghai).
4) The cells were diluted with culture medium to 2.5×10^5 cells/mL. The diluted cells was seeded into 24-well plates (800 μg/hole, 2×10^5 cells/hole) coated with rat tail collagen and the plates were incubated at 37° C. under 5% CO2 overnight.
1) The cells were inoculated on the 24-well plates and discarded 16-18 hours later. Add 600 μL HBSS buffer to each hole and clean it two times
2) Absorb the HBSS buffer and then add 180 μL of HBSS buffer to each hole.
1) Dissolve the compound powder in 100% DMSO. […]
10 μL of ^14C-Uric acid solution was diluted and added to each well of 24-well plates and the final concentration of ^14C-uric acid was 50 μM. […] Collect the cell lysis in liquid scintillation and read the Tri-Carb signal in liquid scintillation counter after adding the liquid scintillation solution.
Based on the luminescence data, the inhibitory effect of compounds on URAT-1 was analyzed, and the percentage of inhibition data was calculated. […]

[1] = Stability of solid compounds in ambient temperature (15° C., nitrogen cabinet, dark; SFC chiral purity); type: physicochemical; conditions: for Enantiomer Excess of the Compound: solid
Method: Test 2: Evaluation of the Stability of Solid Compounds in Ambient Temperature.
20 mg of test compound was placed into 5 mL brown transparent sealed container with stopper and stoned in the nitrogen cabinet (15° C.) in the dark. After the preset storage time, about 2 mg of test compound was accurately weighed, added into ethanol to prepare 1 mg/mL ethanol solution. The purity and chiral purity of the compound was detected by high performance liquid chromatography (HPLC) or LC-MS (LCMS) and supercritical fluid chromatography (SFC).

[2] = Stability of compounds in ethanol solutions (heated; SFC chiral purity); type: physicochemical; conditions: for Enantiomer Excess of Compound: ethanol solution
Source text: Test 3: Evaluation of the Stability of Compounds in Ethanol Solutions.
(§1) An appropriate amount of test compound was accurately weighed, added into ethanol to obtain an ethanol solution. The ethanol solution of the compound was stirred in a heated oil bath. At the end of the test, the purity and chiral purity of the compound was detected by high performance liquid chromatography (HPLC) or LC-MS (LCMS) and supercritical fluid chromatography (SFC).

[3] = Stability of compounds in DMSO solutions (heated; SFC chiral purity); type: physicochemical; conditions: for Enantiomer Excess of Compound: DMSO solution
Method: Example 4: Evaluation of the Stability of Compounds in DMSO Solutions
as §1, with “DMSO” for “ethanol”, “a DMSO” for “an ethanol”, “test, a sample amount of the DMSO solution was diluted with ethanol and” for “test,”

[4] = Stability of compounds in human plasma; type: in vitro ADME
Method: (§2) Test 5: Evaluation of the Stability of Compounds in Rat Plasma and Human Plasma
(§3) 2. Experimental Procedures and Methods • 2.1 Prior to the experiment, the frozen plasma stored at −40° C. was thawed at room temperature and incubated in a 37° C. water bath for 5-10 min; centrifuged at 4000 rpm for 5 min, to remove impurities and lipids in the plasma. Measured the value of pH, if required, adjusted it to 7.4±0.1. • 2.2 Prepared 400 μM intermediate solution by diluting 4 μL of the working solution (10 mM) with 96 μL DMSO. • 2.3 Preparation of incubation samples: Remove 3 μL of intermediate solution (400 μM) to mix with 597 μL of blank plasma to achieve 2 μM of final concentration. Incubate each time point samples (0 min, 10 min, 30 min, 60 min, 120 min, in duplicate) at 37° C. in water bath. • 2.4 An aliquot of 100 μL samples of the final spiked plasma for each time point were removed to sample collected plates, added 400 μL of stop solution (200 ng/mL Tolbutamide plus 20 ng/mL Buspirone in 50% ACN/MeOH) to precipitate protein. Mixed thoroughly. • 2.5 Centrifuged each plate at 4,000 rpm for 20 min. Transfered an aliquot of supernatant (100 μL) from each well to sample plate and mixed with 200 μL ultra pure water. Shaked the plate at 800 rpm for about 10 min before submitting to LC-MS/MS analysis. 3. Experimental Data Analysis
(§4) The ratio of the peak area to the internal standard peak area was used to assess the decrease of the test compound to be measured. The % remaining of the test compound after incubation in plasma was calculated using following equation: % Remaining=100×(PAR at appointed incubation time/PAR at T0 time)
(§5) wherein PAR is the peak area ratio of analyte versus internal standard (IS)
(§6) The appointed incubation time points are: 0 min, 10 min, 30 min, 60 min, 120 min; T0: Samples prior to incubation.

[5] = Stability of compounds in SD rat plasma; type: in vitro ADME; conditions: for Recovery (% remaining): SD rat plasma, 2 μM, 37° C.
Method: as §2, §3, §4, §5, §6

## O=C(O)CSc1nnc(Br)n1-c1ccc(C2CC2)c2ccccc12 (single isomer, unassigned) [(+)-Lesinurad]
Human URAT1
  In vitro potency against URAT1 compared with (−)-Lesinurad and (±)-Lesinurad: obviously higher in vitro potency
[1]; storing time 0 day
  Enantiomer Excess of the Compound: 95.9%
[1]; storing time >80 days
  Enantiomer Excess of the Compound: Unchanged
[1]; storing over 80 days
  Stability of the solid powder (SFC purity): very stable
[2]; 37° C., 3 days
  Enantiomer Excess of Compound: Unchanged
[2]; 70° C., 3 days
  Enantiomer Excess of Compound: Unchanged
[2]; heating time 0 day
  Enantiomer Excess of Compound: 95.9%
[2]; heating to 37° C. and up to 70° C.
  Stability in ethanol solutions (SFC purity): very stable
[3]; 80° C., 0 h
  Enantiomer Excess of Compound: 95.9%
[3]; 80° C., 2 × 24 h
  Enantiomer Excess of Compound: Unchanged
[3]; 80° C., 4 × 24 h
  Enantiomer Excess of Compound: Unchanged
[3]; 80° C., 2 h
  Enantiomer Excess of Compound: Unchanged
[3]; 80° C., 4 h
  Enantiomer Excess of Compound: Unchanged
[3]; 80° C., 8 h
  Enantiomer Excess of Compound: Unchanged
[3]; 80° C., 24 h
  Enantiomer Excess of Compound: Unchanged
[3]; 120° C., 0 h
  Enantiomer Excess of Compound: 95.9%
[3]; 120° C., 2 × 24 h
  Enantiomer Excess of Compound: Unchanged
[3]; 120° C., 4 × 24 h
  Enantiomer Excess of Compound: Unchanged
[3]; 120° C., 2 h
  Enantiomer Excess of Compound: Unchanged
[3]; 120° C., 4 h
  Enantiomer Excess of Compound: Unchanged
[3]; 120° C., 8 h
  Enantiomer Excess of Compound: Unchanged
[3]; 120° C., 24 h
  Enantiomer Excess of Compound: Unchanged
[3]; 160° C., 0 h
  Enantiomer Excess of Compound: 95.9%
[3]; 160° C., 8 h
  Enantiomer Excess of Compound: Unchanged
[3]; heating to 80° C., 120° C. and up to 160° C.
  Stability in DMSO solutions (SFC purity): very stable
[4]; 2 hours
  Stability after co-incubation with human plasma: very stable
[4]; human plasma, 2 μM, 37° C., 120 min
  Recovery (% remaining): 100.4%
[4]; human, plasma, pH 7.4, human plasma, 2 μM, 37° C., 0 min, read-out: Recovery (% remaining)
  recovery at 0 min, 2 μM: 100%
[4]; human, plasma, pH 7.4, human plasma, 2 μM, 37° C., 10 min, read-out: Recovery (% remaining)
  recovery at 10 min, 2 μM: 100%
[4]; human, plasma, pH 7.4, human plasma, 2 μM, 37° C., 30 min, read-out: Recovery (% remaining)
  recovery at 30 min, 2 μM: 99.5%
[4]; human, plasma, pH 7.4, human plasma, 2 μM, 37° C., 60 min, read-out: Recovery (% remaining)
  recovery at 60 min, 2 μM: 99.4%
[5]; 2 hours
  Stability after co-incubation with SD-rat plasma: very stable
[5]; 30 min
  Recovery (% remaining): 100.3%
[5]; 60 min
  Recovery (% remaining): 99.7%
[5]; 120 min
  Recovery (% remaining): 101.2%
